In US20200405697A1, “Antitumor Agent” (Taiho Pharmaceutical Co., Ltd, priority 2017, published 2020):
pIC50: −log10 of the molar value.

Experiments:
[1] = biological target: T1, human RNR (histidine tagged human M1 and human M2 proteins) (Homo sapiens, UniProt P23921); assay: Human RNR inhibition effect (dCDP formation from CDP); format: biochemical; settings: 10 μM CDP, 37° C. for 30 minutes, read-out: RNR inhibitory activity IC50
T1 construct: made in house; host or cells: Escherichia coli
T1 sequence (P23921 1-792): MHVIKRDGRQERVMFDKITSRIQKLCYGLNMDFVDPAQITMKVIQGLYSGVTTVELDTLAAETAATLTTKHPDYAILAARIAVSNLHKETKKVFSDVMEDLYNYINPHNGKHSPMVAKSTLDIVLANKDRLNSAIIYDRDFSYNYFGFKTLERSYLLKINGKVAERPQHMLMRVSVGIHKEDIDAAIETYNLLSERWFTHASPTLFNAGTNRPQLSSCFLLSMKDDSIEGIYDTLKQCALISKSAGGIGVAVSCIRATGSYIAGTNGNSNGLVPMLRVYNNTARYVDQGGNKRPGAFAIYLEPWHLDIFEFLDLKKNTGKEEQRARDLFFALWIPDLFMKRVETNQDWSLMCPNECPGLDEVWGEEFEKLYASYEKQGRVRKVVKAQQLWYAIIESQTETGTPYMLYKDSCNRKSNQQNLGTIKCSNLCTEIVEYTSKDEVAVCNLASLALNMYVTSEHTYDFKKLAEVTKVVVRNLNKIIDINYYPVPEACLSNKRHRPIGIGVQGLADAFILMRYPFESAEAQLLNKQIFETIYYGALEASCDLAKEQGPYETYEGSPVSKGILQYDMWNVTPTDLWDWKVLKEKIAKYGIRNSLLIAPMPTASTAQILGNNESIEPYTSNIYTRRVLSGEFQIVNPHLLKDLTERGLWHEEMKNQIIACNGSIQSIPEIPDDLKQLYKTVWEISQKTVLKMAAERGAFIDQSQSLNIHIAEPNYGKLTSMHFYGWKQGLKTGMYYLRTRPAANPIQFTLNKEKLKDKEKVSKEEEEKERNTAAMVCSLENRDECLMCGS
Procedure, shortened: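 His-tagged human M1 (isoform 1) and N-terminal 59-aa-truncated M2 (isoform 2), E. coli-expressed, Ni-purified, preincubated 20 min with compound (1% DMSO). Reaction with 10 μM CDP, 2 mM ATP, 0.24 mM NADPH, 6 mM DTT, 4 mM Mg acetate, 100 mM KCl, 50 mM HEPES pH 7.2, 30 min at 37° C. dCDP formed quantified by reverse-phase HPLC after heat stop.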

GB-1 cells = assay: Cell proliferation inhibitory effect on human cancer cell lines: GB-1; format: cell-based; settings: GB-1, Glioblastoma, DMEM + 10% FBS, 3000 cell/well
Method: Human derived breast cancer cell line HCC 1806 cells (American Type Culture Collection, ATCC) were daily passaged at a cell density not exceeding 80% in ATCC recommended Roswell Park Memorial Institute medium (RPMI-1640) containing 10% fetal bovine serum (FBS). In order to start the test of cell proliferation inhibitory activity, HCC 1806 cells were suspended in the above medium, after seeing at 180 μL in each well of a 96-well flat bottom plate so that the number of cells per well was 2,000, the cells were cultured at 37° C. for 1 day in an incubator containing 5% carbon dioxide gas.
On the next day, the Example compound was dissolved in DMSO, and 20 μL of a drug additive solution diluted serially with distilled water to 10 times of the final concentration was added to each well of the culture plate of the cells, and the cells were cultured at 37° C. for 72 hours in an incubator containing 5% carbon dioxide gas. After culturing for 72 hours, 20 μL of glutaraldehyde was added to each well and allowed to stand for 30 minutes, then the plate was washed 10 times with water and was dried. 100 μL of a stain solution (0.05% crystal violet in a 20% methanol solution) was added to each well and allowed to stand for 30 minutes, then the plate was washed 10 times with water and was dried. 100 μL of an extract solution (0.1 N NaH2PO4: 100% ethanol=1:1) was added to each well and mixed, and the mixture was measured at a wavelength of 540 nm using a plate reader (MTP-450 manufactured by Corona Electric Co., Ltd.).
The growth inhibition rate was calculated from the following formula, and the concentration (IC50 (μM)) of a compound inhibiting 50% was determined.
According to the method of Test Example 2, the cell proliferation inhibitory effect on various cancer cell lines as described in Table 24 was evaluated. […]

pIC50 [1]: 7.22
pIC50 (GB-1 cells): 5.81
SMILES: Cc1ccc(F)c([C@@H](C)[C@H](NS(=O)(=O)c2ccc(Br)cc2C(N)=O)c2n[nH]c(=O)o2)c1C [Example 1, 5-bromo-2-(N-((1 S,2R)-2-(6-fluoro-2,3-dimethylphenyl)-1-(5-oxo-4,5-dihydro-1,3,4-oxadiazol-2-yl)propyl)sulfamoyl)benzamide]
